Data published in ChEMBL document CHEMBL1156346, “Cytotoxic and novel compounds from Solanum indicum” (J Nat Prod, 2001).

Test system: OVCAR-3
Assay: Cytotoxicity against human OVCAR-3 cells
Format: functional, cell-based

For C=C(C)[C@@H]1CC[C@@]2(C1)C(C)=CC(=O)C[C@H]2C [SOLAVETIVONE], the IC50 was 100 µM.
